Results published in patent US9211340B2, “Means and methods of enhancing delivery to biological systems” (priority 2006, dated 2015).
No end group written: not given here.

Key:
SCF = SCF transport to the cell surface (SCF staining); assay type: cell-based; details: 100 μM peptide, 16 hours; FIG. 5
Description: FIG. 5: Arginine-ester peptide delivery and inhibition of SCF transport to the cell surface (16 hours). Left: No peptide; normal SCF membrane staining.
Cos-7 cells were plated overnight on glass coverslips in 10% serum containing DMEM. For the analysis, we suspended the peptide at 1 mM in PBS (phosphate buffered saline) which was diluted to final concentration in full medium. We washed the cells after 15 or 30 minutes and washed once with PBS and fixed with paraformaldehyed (4%) for 10 minutes and took images in PBS.

SCF-reporter construct = assay: ER-to-Golgi transport of SCF-reporter construct (Golgi-staining of cells); assay type: cell-based; details: 2-hours pretreatment and 1-hour ER-to Golgi transport; FIG. 4

Substance: Arginine-ester peptide: 20-mer SCF peptide (SEQ ID NO: 1) with glutamate carboxylates esterified with a guanidinium alkanol (NEEDNEISMLQEKEREFQEV; also: glutamate carboxylates esterified with a guanidinium alkanol (places and alkanol not given here); listed as Homo sapiens)
- inhibition of SCF transport to the cell surface (SCF staining) (SCF): shift to intracellular SCF staining
- % of cells exhibiting Golgi-staining of reporter construct (export of SCF-reporter construct) (SCF-reporter construct): block export of a SCF-reporter construct
